Reference: patent US9289462B2, “Method for medical treatment utilizing glutathione” (priority 2008, dated 2016)
Where two headings read alike, the source gives them in different places.

Assays:
[1] = tested on: patient with acute pancreatitis, abdominal pain; assay: Example 2: pain score of a patient with acute pancreatitis after a single dose of intravenous reduced L-glutathione; type: in vivo, human
From the text: (§3) The patient improved substantially over a several week period on nonspecific supportive therapy but continued to require pain medication intermittently.

[2] = tested on: patients with acute pancreatitis; conditions: previous studies, cited from earlier work; for benefit in patients with acute pancreatitis: administration of n-acetylcysteine together with the antioxidants selenium and vitamin C
[3] = known value; cited from earlier work
[4] = tested on: amylase and lipase levels; conditions: Example 1; for Lipase: Normal 8-57; for Amylase: Normal 30-110
From the text: (§1) A patient who has experienced over 5 years of constant abdominal pain secondary to chronic pancreatitis is given intravenous reduced L-glutathione therapy.

[5] = tested on: patient with constant abdominal pain secondary to chronic pancreatitis; conditions: for Pain Score: GSH (1 gm) IV
From the text: as §1

[6] = tested on: amylase, lipase and C-reactive protein levels; conditions: Example 3; for CRP: Normal 0-7.48; for Lipase: Normal 8-57; for Amylase: Normal 30-110
From the text: (§2) A person had experienced 5 weeks of increasing back and abdominal pain prior to first dose of intravenous L-glutathione. […] The patient elected to undergo intravenous L-glutathione reduced therapy for pancreatitis.

[7] = tested on: patient with back and abdominal pain, pancreatitis; conditions: for Pain Score: GSH (1 gm)
From the text: as §2

[8] = tested on: amylase and lipase levels; conditions: Example 2; for Lipase: Normal 8-57; for Amylase: Normal 30-110
From the text: as §3

[9] = Sep. 14, 2007 (before first GSH infusion of Sep. 28, 2007)
[10] = Sep. 28, 2007 (date of first GSH infusion)
[11] = Jun. 3, 2008 (date of first GSH dose)
[12] = May 22, 2008 (before first GSH dose of Jun. 3, 2008)
[13] = May 30, 2008 (before first GSH dose)
[14] = May 7, 2008 (date of GSH infusion)

With `COc1ccc2c3c1O[C@H]1C(=O)CC[C@H]4[C@@H](C2)N(C)CC[C@]314` [hydrocodone, reference compound] the pain ([1]; Example 2, May 7, 2008, pain described as 10/10, relieved with hydrocodone taken at home, before GSH) was 5 /10.

In the case of `[Se]` [selenium], the “benefit in patients with acute pancreatitis” value (“benefit in patients” below) [2] is given as “failed to show any benefit”.

For `CC(C)OC(=O)CNC(=O)[C@H](CS)NC(=O)CC[C@H](N)C(=O)O` [glutathione isopropyl ester], the “toxicity LD 50 value” [3] is given as “about 5.3 g/kg”.

For `O=C1O[C@H]([C@@H](O)CO)C(O)=C1O` [vitamin C, reference compound], the “benefit in patients” value [2] is listed as “failed to show any benefit”.

With `NC(CCC(=O)NC(CS)C(=O)NCC(=O)O)C(=O)O` (stereo not shown) [GSH, 2-amino-4-[[1-(carboxymethylcarbamoyl)-2-sulfanyl-ethyl]carbamoyl]butanoic acid] the Lipase ([4]; Jun. 27, 2008) was 30, the Amylase ([4]; Jun. 27, 2008) was 68 and the Lipase ([4]; Nov. 5, 2007) was 39. It also gave an Amylase ([4]; Nov. 5, 2007) of 62, a Lipase [4, 9] of 108 and an Amylase [4, 9] of 90. The Lipase [4, 10] was 64, the Amylase [4, 10] was 79 and the “amylase and lipase levels” value ([4]; during the course of treatment) was “significantly reduced”. For the same molecule, the “Pain Score” value ([5]; Example 1, person, Sep. 28, 2007, pain medication hydrocodone) was 8 of 10, the “Pain Score” value ([5]; Example 1, Dec. 10, 2007, pain medication propoxyphene) was 1 of 10 and the “Pain Score” value ([5]; Example 1, Dec. 17, 2007, pain medication None) was 0 of 10. For the same molecule, the “Pain Score” value ([5]; Example 1, Jan. 3, 2008, pain medication None) was 0 of 10, the “Pain Score” value ([5]; Example 1, Nov. 12, 2007, pain medication propoxyphene) was 1 of 10 and the “Pain Score” value ([5]; Example 1, Oct. 10, 2007, pain medication propoxyphene) was 5 of 10. The “Pain Score” value ([5]; Example 1, Oct. 29, 2007, pain medication propoxyphene) was 2 of 10, the “Pain reported by the patient” value ([5]; Example 1, within four months of initiating reduced L-glutathione therapy) was “absence of pain” and the “Pain Score” value ([1]; Example 2, person, GSH (1 gm) IV, May 7, 2008, pain medication hydrocodone) was 5 of 10. For the same molecule, the “Pain Score” value ([1]; Example 2, May 9, 2008, follow up visit only, no infusion given, pain medication None) was 0 of 10, the “pain and enzyme levels” value ([1]; Example 2, single dose of intravenous reduced L-glutathione) was “responded to a single dose” and the CRP [6, 11] was 7.84. It also gave a Lipase [6, 11] of 112, an Amylase [6, 11] of 95 and a CRP ([6]; Jun. 5, 2008) of 9.11. It also gave a Lipase ([6]; Jun. 5, 2008) of 152, an Amylase ([6]; Jun. 5, 2008) of 128 and a Lipase ([6]; Jun. 16, 2008) of 89. It also gave an Amylase ([6]; Jun. 16, 2008) of 75, a CRP ([6]; Jun. 25, 2008) of 3.97 and a Lipase ([6]; Jun. 25, 2008) of 60. It also gave an Amylase ([6]; Jun. 25, 2008) of 64, a Lipase [6, 12] of 150 and an Amylase [6, 12] of 105. For the same molecule, the Lipase [6, 13] was 150, the Amylase [6, 13] was 124 and the “amylase, lipase and C-reactive protein levels” value ([6]; within a month of intravenous L-glutathione reduced therapy) was “reduction”. For the same molecule, the “Pain Score” value ([7]; Example 3, person, Jun. 3, 2008, pain medication hydrocodone) was 5 of 10, the “Pain Score” value ([7]; Example 3, Jun. 4, 2008, pain medication hydrocodone) was 0 of 10 and the “Pain Score” value ([7]; Example 3, Jun. 5, 2008, pain medication hydrocodone) was 2.5 of 10. The “Pain Score” value ([7]; Example 3, Jun. 6, 2008, pain medication hydrocodone) was 4.5 of 10, the “Pain Score” value ([7]; Example 3, Jun. 9, 2008, pain medication hydrocodone) was 3 of 10 and the “Pain Score” value ([7]; Example 3, Jun. 16, 2008, pain medication None) was 0 of 10. For the same molecule, the “Pain Score” value ([7]; Example 3, Jun. 18, 2008, pain medication None) was 0 of 10, the “Pain Score” value ([7]; Example 3, Jun. 25, 2008, Back pain due to lifting furniture) was 2 of 10 and the pain ([7]; Example 3, within a month of intravenous L-glutathione reduced therapy) was “significant decrease in pain”. The Lipase [8, 14] was 161, the Amylase [8, 14] was 115 and the Lipase ([8]; May 9, 2008) was 132. For the same molecule, the Amylase ([8]; May 9, 2008) was 105 and the “effect on multiple organ functions in patients with acute pancreatitis” value ([2]; administration of glutathione) was “protective effect”.

For `CC(=O)N[C@@H](CS)C(=O)O` [n-acetylcysteine, reference compound], the “benefit in patients” value [2] is given as “failed to show any benefit”.
